Results on four molecules are retold here after patent US12391737B2, “Soluble NPY2 receptor agonists” (Boehringer Ingelheim International GmbH, priority 2020, dated 2025).

The Ki is the dissociation constant of the complex between target and ligand, obtained from inhibition or displacement. The term EC50 denotes the concentration at which the effect is half-maximal.

The target of series [1] is T1, Human Neuropeptide Y2 Receptor (Homo sapiens, UniProt P49146).
T1 construct: purchased CHEMICON HTS066M
T1 sequence (P49146 1-381): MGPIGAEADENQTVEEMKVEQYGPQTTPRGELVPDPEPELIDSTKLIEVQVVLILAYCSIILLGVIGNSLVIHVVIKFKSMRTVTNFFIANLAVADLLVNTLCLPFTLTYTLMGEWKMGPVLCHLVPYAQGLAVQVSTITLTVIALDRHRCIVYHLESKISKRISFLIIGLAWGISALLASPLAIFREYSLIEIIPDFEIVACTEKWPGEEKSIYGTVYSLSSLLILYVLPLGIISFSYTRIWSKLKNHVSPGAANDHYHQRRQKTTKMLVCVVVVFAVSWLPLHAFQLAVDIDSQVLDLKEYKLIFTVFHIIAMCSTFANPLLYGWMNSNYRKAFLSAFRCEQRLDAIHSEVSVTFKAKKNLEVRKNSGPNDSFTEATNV
The series can be described thus: Radioligand binding competition assay (RLB). As to conditions: Table 3, 125I-PYY(1-36) competition; read-out: Ki. Summed up:
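Filtration competition binding on membranes from cells expressing the receptor, 0.5 μg protein/well, in 50 mM HEPES, 5 mM MgCl2, 1 mM CaCl2, pH 7.4, with 0.2% ovalbumin. Incubation ran 2 h at room temperature, followed by GF/C filtration and scintillation counting. IC50 came from nonlinear sigmoidal fits.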

Another series in a line: Solubility determination. As to conditions: for Sol6: pH 6; for Sol7: pH 7. The method, boiled down:
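Shake-flask style: 10 mg/ml peptide (TFA salt), 0.1 M sodium diphosphate pH 6.4/7.0, 600 rpm, 2 h, RT; filter; dilute 1 mg/ml in 50% MeCN; RP-UPLC, 0–100% B over 2 min, 50 °C. Solubility = sample/control area ratio. Final pH recorded.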

Series [2] addresses T2, human NPY5 receptor (hY5R) (Homo sapiens, UniProt Q15761).
T2 sequence (Q15761 1-445): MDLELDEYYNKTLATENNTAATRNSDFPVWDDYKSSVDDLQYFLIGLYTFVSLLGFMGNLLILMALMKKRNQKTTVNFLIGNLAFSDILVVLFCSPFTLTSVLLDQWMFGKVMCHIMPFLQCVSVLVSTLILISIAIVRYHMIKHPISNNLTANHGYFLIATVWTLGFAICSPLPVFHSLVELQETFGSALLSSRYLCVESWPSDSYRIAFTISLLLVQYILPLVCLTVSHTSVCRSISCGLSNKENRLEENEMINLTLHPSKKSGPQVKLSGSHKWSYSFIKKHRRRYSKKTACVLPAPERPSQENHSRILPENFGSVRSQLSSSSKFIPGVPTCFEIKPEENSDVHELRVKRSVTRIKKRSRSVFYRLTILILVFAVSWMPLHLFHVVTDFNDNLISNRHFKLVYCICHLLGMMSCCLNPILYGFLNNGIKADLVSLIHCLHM
Briefly: HTRF cAMP Gi assay, hY5R. Background: TR-FRET usually uses a lanthanide donor and a delayed reading to cut background.
Experimental: Briefly, the production of intracellular cAMP will generate a competition between unlabeled cAMP and exogenously added d2-cAMP for anti-cAMP antibodies conjugated to cryptate. CHO-K1 cells stably expressing the human NPY1, NPY2, NPY4 and NPY5 receptors were used with the cells brought to life from a frozen stock immediately before assay performance. 2000 cells per well were applied for all four NPY receptor subtype assays. A 384-well format was used applying a total volume of 20 μl using 5 μl cells, 2.5 μl peptide agonist, 2.5 μl forskolin and 5 μl of each of the fluorophores. […] Concentration-response evaluation of compounds was performed with 11 concentrations of agonist peptides (covering 3 decades). EC50 values were calculated by nonlinear regression using sigmoid concentration-response with variable slope.

*1 amine or outer side, *2 acyl side, *3 side chain or, on linkers, in order; H or OH if unused. Where a SMILES comes first, the peptide text is derived from it. Side-chain parts run from the residue outwards. The star is where a group is joined. C18 diacid = O=C(O)CCCCCCCCCCCCCCCCC(=O)*; γGlu = O=C(O)[C@H](CCC(=O)[*:2])N[*:1]; Isovaleryl = CC(C)CC(=O)*; Ahx = NCCCCCC(=O)O

Regarding `CC(C)CC(=O)N[C@@H](C)C(=O)N1CCC[C@H]1C(=O)N[C@@H](C)C(=O)N[C@@H](CCCCNC(=O)CCCCCNC(=O)CC[C@H](NC(=O)CCCCCCCCCCCCCCCCC(=O)O)C(=O)O)C(=O)N1CCC[C@H]1C(=O)N[C@@H](CCC(=O)O)C(=O)N[C@@H](CCC(=O)O)C(=O)N[C@@H](CC(=O)O)C(=O)N[C@@H](C)C(=O)N[C@@H](CO)C(=O)N1CCC[C@H]1C(=O)N[C@@H](CCC(=O)O)C(=O)N[C@@H](CCC(=O)O)C(=O)N[C@@H](CC(C)C)C(=O)N[C@@H](CCC(N)=O)C(=O)N[C@@H](CCCNC(=N)N)C(=O)N[C@@H](Cc1ccc(O)cc1)C(=O)N[C@@H](Cc1ccc(O)cc1)C(=O)N[C@H](C(=O)N[C@@H](CO)C(=O)N[C@@H](CC(C)C)C(=O)N[C@@H](CCCNC(=N)N)C(=O)N[C@@H](Cc1c[nH]cn1)C(=O)N[C@@H](Cc1ccc(O)cc1)C(=O)N[C@@H](Cc1ccc(O)cc1)C(=O)N[C@@H](CC(N)=O)C(=O)N[C@@H](Cc1c[nH]c2ccccc12)C(=O)N[C@@H](CC(C)C)C(=O)N[C@H](C(=O)N[C@@H](CCCNC(=N)N)C(=O)N[C@@H](CCC(N)=O)C(=O)N[C@@H](CCCNC(=N)N)C(=O)N[C@@H](Cc1ccc(O)cc1)C(N)=O)[C@@H](C)O)C(C)C` [Compound 145, N{alpha-4}-(3-methylbutanoyl)-N{epsilon-7}-(6-[(4S)-4-carboxy-4-(17-carboxyheptadecanamido)butanamido]hexanoyl)-[4A,6A,7K,9E,18Q,22V,28Y,30W,31L]-hPYY(4-36)], the Ki in series [1] worked out at 5.29 nM. Besides, in “Solubility determination”, the “Sol6” value was 7.2 mg/mL and the “Sol7” value is 9.0 mg/mL. For the same molecule, the concentration for a half-maximal effect (EC50) in series [2] is more than 5000 nM.
Turning to `CC[C@H](C)[C@H](NC(=O)[C@H](CCC(=O)O)NC(=O)[C@H](CCC(=O)O)NC(=O)[C@@H]1CCCN1C(=O)[C@H](CO)NC(=O)[C@H](C)NC(=O)[C@H](CC(=O)O)NC(=O)[C@H](CCC(=O)O)NC(=O)[C@H](CCC(=O)O)NC(=O)[C@@H]1CCCN1C(=O)[C@H](CCCCNC(=O)CCCCCNC(=O)CC[C@H](NC(=O)CCCCCCCCCCCCCCCCC(=O)O)C(=O)O)NC(=O)[C@H](CCC(=O)O)NC(=O)[C@@H]1CCCN1C(=O)[C@H](C)NC(=O)CC(C)C)C(=O)N[C@@H](CCC(N)=O)C(=O)N[C@@H](CCC(N)=O)C(=O)N[C@@H](Cc1ccc(O)cc1)C(=O)N[C@@H](Cc1ccc(O)cc1)C(=O)N[C@H](C(=O)N[C@@H](CO)C(=O)N[C@@H](CC(C)C)C(=O)N[C@@H](CCCNC(=N)N)C(=O)N[C@@H](Cc1c[nH]cn1)C(=O)N[C@@H](Cc1ccc(O)cc1)C(=O)N[C@@H](Cc1ccc(O)cc1)C(=O)N[C@@H](CC(N)=O)C(=O)N[C@@H](Cc1c[nH]c2ccccc12)C(=O)N[C@@H](CC(C)C)C(=O)N[C@H](C(=O)N[C@@H](CCCNC(=N)N)C(=O)N[C@@H](CCC(N)=O)C(=O)N[C@@H](CCCNC(=N)N)C(=O)N[C@@H](Cc1ccc(O)cc1)C(N)=O)[C@@H](C)O)C(C)C` [Compound 15, N{alpha-4}-(3-methylbutanoyl)-N{epsilon-7}-(6-[(4S)-4-carboxy-4-(17-carboxyheptadecanamido)butanamido]hexanoyl)[4A,7K,9E,17I,18Q,19Q,22V,28Y,30W,31L]-hPYY(4-36)], the inhibition constant (Ki) in series [1] was determined as 3.98 nM. Also, in “Solubility determination”, the “Sol6” value stood at 9.3 mg/mL and the “Sol7” value turned out to be 9.2 mg/mL. Besides, the EC50 in series [2] was more than 5000 nM.
As for `CC[C@H](C)[C@H](NC(=O)[C@H](CCC(=O)O)NC(=O)[C@H](CCC(=O)O)NC(=O)[C@@H]1CCCN1C(=O)[C@H](CO)NC(=O)[C@H](C)NC(=O)[C@H](CC(=O)O)NC(=O)[C@H](CCC(=O)O)NC(=O)[C@H](CCC(=O)O)NC(=O)[C@@H]1CCCN1C(=O)[C@H](CCCCNC(=O)CCCCCNC(=O)CC[C@H](NC(=O)CCCCCCCCCCCCCCCCC(=O)O)C(=O)O)NC(=O)[C@H](CCC(=O)O)NC(=O)[C@@H]1CCCN1C(=O)[C@H](C)NC(=O)CC(C)C)C(=O)N[C@@H](CCC(N)=O)C(=O)N[C@@H](CCCNC(=N)N)C(=O)N[C@@H](Cc1ccc(O)cc1)C(=O)N[C@@H](Cc1ccc(O)cc1)C(=O)N[C@H](C(=O)N[C@@H](CO)C(=O)N[C@@H](CC(C)C)C(=O)N[C@@H](CCCNC(=N)N)C(=O)N[C@@H](Cc1c[nH]cn1)C(=O)N[C@@H](Cc1ccc(O)cc1)C(=O)N[C@@H](Cc1ccc(O)cc1)C(=O)N[C@@H](CC(N)=O)C(=O)N[C@@H](Cc1c[nH]c2ccccc12)C(=O)N[C@@H](CC(C)C)C(=O)N[C@H](C(=O)N[C@@H](CCCNC(=N)N)C(=O)N[C@@H](CCC(N)=O)C(=O)N[C@@H](CCCNC(=N)N)C(=O)N[C@@H](Cc1ccc(O)cc1)C(N)=O)[C@@H](C)O)C(C)C` [Compound 147, N{alpha-4}-(3-methylbutanoyl)-N{epsilon-7}-(6-[(4S)-4-carboxy-4-(17-carboxyheptadecanamido)butanamido]hexanoyl)-[4A,7K,9E,17I,18Q,22V,28Y,30W,31L]-hPYY(4-36)], the Ki in series [1] was determined as 5.04 nM. In the series “Solubility determination”, the “Sol6” value was 9.4 mg/mL and the “Sol7” value was 9.2 mg/mL. In addition, in series [2], the EC50 is more than 5000 nM.
In the case of `CC(C)CC(=O)N[C@@H](C)C(=O)N1CCC[C@H]1C(=O)N[C@@H](CCC(=O)O)C(=O)N[C@@H](CCCCNC(=O)CCCCCNC(=O)CC[C@H](NC(=O)CCCCCCCCCCCCCCCCC(=O)O)C(=O)O)C(=O)N1CCC[C@H]1C(=O)N[C@@H](CCC(=O)O)C(=O)N[C@@H](CCC(=O)O)C(=O)N[C@@H](CC(=O)O)C(=O)N[C@@H](C)C(=O)N[C@@H](CCC(=O)O)C(=O)N1CCC[C@H]1C(=O)N[C@@H](CCC(=O)O)C(=O)N[C@@H](CCC(=O)O)C(=O)N[C@@H](CC(C)C)C(=O)N[C@@H](CCC(N)=O)C(=O)N[C@@H](CCCNC(=N)N)C(=O)N[C@@H](Cc1ccc(O)cc1)C(=O)N[C@@H](Cc1ccc(O)cc1)C(=O)N[C@H](C(=O)N[C@@H](CO)C(=O)N[C@@H](CC(C)C)C(=O)N[C@@H](CCCNC(=N)N)C(=O)N[C@@H](Cc1c[nH]cn1)C(=O)N[C@@H](Cc1ccc(O)cc1)C(=O)N[C@@H](Cc1ccc(O)cc1)C(=O)N[C@@H](Cc1c[nH]cn1)C(=O)N[C@@H](Cc1c[nH]c2ccccc12)C(=O)N[C@@H](CC(C)C)C(=O)N[C@H](C(=O)N[C@@H](CCCNC(=N)N)C(=O)N[C@@H](CCC(N)=O)C(=O)N[C@@H](CCCNC(=N)N)C(=O)N[C@@H](Cc1ccc(O)cc1)C(N)=O)[C@@H](C)O)[C@@H](C)O` [Compound 91, N{alpha-4}-(3-methylbutanoyl)-N{epsilon-7}-(6-[(4S)-4-carboxy-4-(17-carboxyheptadecanamido)butanamido]hexanoyl)-[4A,7K,9E,13E,18Q,22T,28Y,29H,30W,31L]-hPYY(4-36)] (Isovaleryl-APEK([Ahx-γGlu-C18 diacid])PEEDAEPEELQRYYTSLRHYYHWLTRQRY-NH2), the inhibition constant Ki in series [1] amounted to 4.64 nM. Also, in the series “Solubility determination”, the “Sol6” value was 8.9 mg/mL and the “Sol7” value was determined as 9.4 mg/mL. This molecule also registered a half-maximal effective concentration (EC50) in series [2] not below 5000 nM.
